In patent publication US20240228458A1, “PYRIMIDINE DERIVATIVE HAVING PROTEIN KINASE INHIBITORY ACTIVITY, AND THERAPEUTIC PHARMACEUTICAL COMPOSITION COMPRISING SAME” (THERAPEX CO., LTD., priority 2021, published 2024):

What was measured:
Assay type in all cases: cell-based
[1] = tested on: Ba/F3 cells expressing EGFR-wt; experiment: Growth inhibition (GI50) of Ba/F3 cells expressing EGFR-wt, Celltiter glo; details: Mus musculus, BaF3, 72 h
How it was run: (§1)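 We seed Ba/F3 transfectants at 100,000 cells/ml, dose them with ten 4-fold compound dilutions (2 mM top stock, 0.5% DMSO) after 4 h, and culture for 72 h at 37 °C. CellTiter-Glo then reports viable cell number, from which the GI50 is fitted.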

[2] = tested on: Ba/F3 cells expressing L858R/T790M/C797S (EGFR-LTC); experiment: Growth inhibition (GI50) of Ba/F3 cells expressing L858R/T790M/C797S (EGFR-LTC), Celltiter glo; details: Mus musculus, BaF3, 72 h
Description: In this experimental example, a determination was made as to whether the compounds prepared in Examples 1-283 have the ability to inhibit the growth of Ba/F3 cells expressing EGFR-wt, del19/T790M/C797S (EGFR-DTC), L858R/T790M/C797S (EGFR-LTC), del19/T790M (EGFR-DT), and L858R/T790M (EGFR-LT) variants.
The parental Ba/F3 cell line is a population of cells that are not introduced with EGFR variants. Specifically, 100 μl of a cell line expressing each variant was plated in a 96-well plate at a density of 100,000 cells/ml. 10-point, 4-fold serial dilutions of each compound were prepared, starting at 2 mM. After 4 h, 0.5 μl of the compound (0.5% DMSO) was added, followed by incubation at 37° C. and 5% CO2 for 72 h. After incubation, the number of viable cells was measured using a Celltiter glo assay kit (Promega) and the GI50 of the compound was determined. The term “GI50” refers to the molar concentration (μM) of the compound required for 50% growth inhibition of cells.

parental Ba/F3 cell line = experiment: Growth inhibition (GI50) of the parental Ba/F3 cell line (not introduced with EGFR variants), Celltiter glo; details: Mus musculus, BaF3, 72 h, parental Ba/F3 cells
How it was run: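 Viable cell count by CellTiter-Glo after 72 h at 37 °C gave GI50 values (μM, 50% growth inhibition). Cells lacking EGFR variants were seeded at 100,000 cells/ml and dosed 4 h later with 4-fold serial dilutions from a 2 mM stock, 0.5% DMSO.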

[3] = tested on: Ba/F3 cells expressing del19/T790M/C797S (EGFR-DTC); experiment: Growth inhibition (GI50) of Ba/F3 cells expressing del19/T790M/C797S (EGFR-DTC), Celltiter glo; details: Mus musculus, BaF3, 72 h
How it was run: as §1

Row | SMILES | GI50 [1] [nM] | GI50 [2] [nM] | GI50 [3] [nM] | GI50 (parental Ba/F3 cell line) [nM]
1 | CC(=O)Nc1ccccc1Nc1nc(Nc2ccc(N3CCC(N4CCN(C)CC4)CC3)c(F)c2)ncc1Cl [Example 69, N-(2-((5-chloro-2-((3-fluoro-4-(4-(4-methylpiperazin-1-yl)piperidin-1-yl)phenyl)amino)pyrimidin-4-yl)amino)phenyl)acetamide] | 25 to 100 | 1 to 25 | 1 to 25 | 1 to 25
2 | COc1cc(N2CCC(N3CCN(C)CC3)CC2)c(C)cc1Nc1ncc(Cl)c(Nc2ccccc2NC(C)=O)n1 [Example 68, N-(2-((5-chloro-2-((2-methoxy-5-methyl-4-(4-(4-methylpiperazin-1-yl)piperidin-1-yl)phenyl)amino)pyrimidin-4-yl)amino)phenyl)acetamide] | 2000 to 10000 | 2000 to 10000 | 500 to 2000 | 2000 to 10000
3 | COc1nc(N2CCN(C3CCN(C)CC3)CC2)ccc1Nc1ncc(Br)c(Nc2ccc(F)cc2NS(C)(=O)=O)n1 [Example 36, N-(2-((5-bromo-2-((2-methoxy-6-(4-(1-methylpiperidin-4-yl)piperazin-1-yl)pyridin-3-yl)amino)pyrimidin-4-yl)amino)-5-fluorophenyl)methanesulfonamide] | 500 to 2000 | 100 to 500 | 100 to 500 | 2000 to 10000
4 | COc1cc(N2CCC(N3CCN(C)CC3)CC2)ccc1Nc1ncc(Cl)c(Nc2cc(Cl)ccc2NS(C)(=O)=O)n1 [Example 82, N-(4-chloro-2-((5-chloro-2-((2-methoxy-4-(4-(4-methylpiperazin-1-yl)piperidin-1-yl)phenyl)amino)pyrimidin-4-yl)amino)phenyl)methanesulfonamide] | 500 to 2000 | 100 to 500 | 100 to 500 | 500 to 2000
5 | CC(=O)Nc1cc(Cl)c(Cl)cc1Nc1nc(Nc2ccc(N3CCC(N4CCN(C)CC4)CC3)c(F)c2)ncc1Cl [Example 76, N-(4,5-dichloro-2-((5-chloro-2-((3-fluoro-4-(4-(4-methylpiperazin-1-yl)piperidin-1-yl)phenyl)amino)pyrimidin-4-yl)amino)phenyl)acetamide] | 100 to 500 | 100 to 500 | 100 to 500 | 100 to 500
6 | COc1cc(N2CCC(N3CCN(C)CC3)CC2)c(F)cc1Nc1ncc(Br)c(Nc2cc(Cl)ccc2NS(C)(=O)=O)n1 [Example 92, N-(2-((5-bromo-2-((5-fluoro-2-methoxy-4-(4-(4-methylpiperazin-1-yl)piperidin-1-yl)phenyl)amino)pyrimidin-4-yl)amino)-4-chlorophenyl)methanesulfonamide] | 100 to 500 | 25 to 100 | 1 to 25 | 2000 to 10000
7 | COc1nc(N2CCNCC2)ccc1Nc1ncc(Cl)c(Nc2ccc3nccnc3c2P(C)(C)=O)n1 [Example 128, (6-((5-chloro-2-((2-methoxy-6-(piperazin-1-yl)pyridin-3-yl)amino)pyrimidin-4-yl)amino)quinoxalin-5-yl)dimethylphosphine oxide] | 2000 to 10000 | 500 to 2000 | 500 to 2000 | 2000 to 10000
8 | COc1cc(N2CCC(N3CCC(N(C)C)C3)CC2)c(C)cc1Nc1ncc(Br)c(Nc2cc(Cl)ccc2NS(C)(=O)=O)n1 (centres unmarked) [Example 91, N-(2-((5-bromo-2-((4-(4-(3-(dimethylamino)pyrrolidin-1-yl)piperidin-1-yl)-2-methoxy-5-methylphenyl)amino)pyrimidin-4-yl)amino)-4-chlorophenyl)methanesulfonamide] | 100 to 500 | 25 to 100 | 1 to 25 | 2000 to 10000
9 | COc1nc(N2CCC(N(C)C)C2)ccc1Nc1ncc(Cl)c(Nc2ccc3nccnc3c2P(C)(C)=O)n1 (centres unmarked) [Example 127, (6-((5-chloro-2-((6-(3-(dimethylamino)pyrrolidin-1-yl)-2-methoxypyridin-3-yl)amino)pyrimidin-4-yl)amino)quinoxalin-5-yl)dimethylphosphine oxide] | > 10000 | 2000 to 10000 | 2000 to 10000 | > 10000
10 | COc1cc(N2CCC(N3CCN(C)CC3)CC2)c(C)cc1Nc1ncc(Br)c(Nc2cc(Cl)ccc2-c2cnn[nH]2)n1 [Example 187] | 100 to 500 | 25 to 100 | 25 to 100 | 500 to 2000

The next lines start with results.

Row | GI50 [1] [nM] | GI50 [2] [nM] | GI50 [3] [nM] | SMILES | GI50 (parental Ba/F3 cell line) [nM]
11 | 500 to 2000 | 500 to 2000 | 500 to 2000 | CC(=O)Nc1cc(Cl)c(Cl)cc1Nc1nc(Nc2cnc(N3CCC(N4CCN(C)CC4)CC3)c(F)c2)ncc1Cl [Example 73, N-(4,5-dichloro-2-((5-chloro-2-((5-fluoro-6-(4-(4-methylpiperazin-1-yl)piperidin-1-yl)pyridin-3-yl)amino)pyrimidin-4-yl)amino)phenyl)acetamide] | 2000 to 10000
12 | 2000 to 10000 | 500 to 2000 | 500 to 2000 | COc1nc(N2CCC(N3CCN(C)CC3)CC2)ccc1Nc1ncc(Cl)c(Nc2cc(Cl)ccc2NS(C)(=O)=O)n1 [Example 81] | 500 to 2000
13 | 500 to 2000 | 100 to 500 | 100 to 500 | COc1nc(N2C[C@@H](C)N(C)[C@@H](C)C2)ccc1Nc1ncc(Cl)c(Nc2ccc3nccnc3c2NS(C)(=O)=O)n1 [Example 135, N-(6-((5-chloro-2-((2-methoxy-6-((3S,5R)-3,4,5-trimethylpiperazin-1-yl)pyridin-3-yl)amino)pyrimidin-4-yl)amino)quinoxalin-5-yl)methanesulfonamide] | 500 to 2000
14 | 500 to 2000 | 100 to 500 | 100 to 500 | COc1cc(N2CCC(N3CCN(C)CC3)CC2)c(Cl)cc1Nc1ncc(Cl)c(N(c2ccc3scnc3c2NS(C)(=O)=O)S(C)(=O)=O)n1 [Example 114, N-(5-chloro-2-((5-chloro-2-methoxy-4-(4-(4-methylpiperazin-1-yl)piperidin-1-yl)phenyl)amino)pyrimidin-4-yl)-N-(4-(methylsulfonamido)benzo[d]thiazol-5-yl)methanesulfonamide] | 500 to 2000
15 | 2000 to 10000 | 500 to 2000 | 100 to 500 | COc1nc(N2CCC(N(C)C)C2)ccc1NC1=[N+]=C(N(c2ccccc2NS(C)(=O)=O)S(C)(=O)=O)C(Cl)=CN1 (centres unmarked) [Example 8, N-(5-chloro-2-((6-(3-(dimethylamino)pyrrolidin-1-yl)-2-methoxypyridin-3-yl)amino)pyrimidin-4-yl)-N-(2-(methylsulfonamido)phenyl)methanesulfonamide] | 2000 to 10000
16 | > 10000 | 2000 to 10000 | 2000 to 10000 | CC(=O)Nc1cc(Cl)c(Cl)cc1Nc1nc(Nc2ccc(N3CCOCC3)nc2)ncc1Cl [Example 74, N-(4,5-dichloro-2-((5-chloro-2-((6-morpholinopyridin-3-yl)amino)pyrimidin-4-yl)amino)phenyl)acetamide] | > 10000
17 | 2000 to 10000 | 500 to 2000 | 500 to 2000 | COc1cc(N2CCC(N3CCN(C4CC4)CC3)CC2)c(C)cc1Nc1ncc(Cl)c(Nc2cc(C(F)(F)F)ccc2NS(C)(=O)=O)n1 [Example 139, N-(2-((5-chloro-2-((4-(4-(4-cyclopropylpiperazin-1-yl)piperidin-1-yl)-2-methoxy-5-methylphenyl)amino)pyrimidin-4-yl)amino)-4-(trifluoromethyl)phenyl)methanesulfonamide] | 500 to 2000
